Source: PubChem BioAssay (NCI)
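Values below derive from 48-hour exposures of cells grown in 96-well plates, with endpoints linearly interpolated between the two concentrations bracketing the appropriate inhibition level. GI50 = concentration required for 50% inhibition of growth. TGI is the concentration that stops growth completely.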

Legend:
Assay in all cases: NCI-60 cell line screen, 48 h
A549 NSCLC = system: A549 NSCLC
CAKI-1 renal = system: CAKI-1 renal
LOX IMVI melanoma = system: LOX IMVI melanoma
NCI-H522 lung = system: NCI-H522 lung
RPMI-8226 leukemia = system: RPMI-8226 leukemia
SF-268 CNS = system: SF-268 CNS
SF-295 CNS = system: SF-295 CNS
SNB-75 CNS = system: SNB-75 CNS
SR leukemia = system: SR leukemia
MCF7 breast = system: MCF7 breast

Compound	TGI (A549 NSCLC) [µM]	TGI (CAKI-1 renal) [µM]	TGI (LOX IMVI melanoma) [µM]	TGI (NCI-H522 lung) [µM]	TGI (RPMI-8226 leukemia)	TGI (SF-268 CNS) [µM]	TGI (SF-295 CNS) [µM]	TGI (SNB-75 CNS) [µM]	TGI (SR leukemia) [µM]	GI50 (A549 NSCLC) [µM]	GI50 (CAKI-1 renal) [µM]	GI50 (LOX IMVI melanoma)	GI50 (NCI-H522 lung) [µM]	GI50 (RPMI-8226 leukemia)	GI50 (SF-268 CNS)	GI50 (SF-295 CNS)	GI50 (SNB-75 CNS)	GI50 (SR leukemia) [µM]	GI50 (MCF7 breast)	TGI (MCF7 breast) [µM]
CC(=O)O[C@H]1CC[C@@]2(C)C(=C/C(=N\[N+](=O)[O-])[C@H]3C4CCC([C@H](C)CCCC(C)C)[C@@]4(C)CCC32)C1 (some centres not stated)	> 100	> 100	> 100	> 100	> 100 µM	> 100	> 100	> 100	–	–	–	–	–	–	–	–	–	–	–	–
COC(=O)C1C(/C=C/c2ccoc2)ON2CCC[C@@H]12 (some centres not stated)	> 100	> 100	> 100	> 100	–	> 100	> 100	> 100	> 100	–	–	–	–	–	–	–	–	–	–	–
NC(=O)N/N=C(\CCC(=O)N(Cc1ccccc1)Cc1ccccc1)CC(=O)c1ccc(F)cc1	> 100	> 100	> 100	–	–	> 100	> 100	–	> 100	–	–	–	–	–	–	–	–	–	–	–
CC(=O)O/N=C/c1cc2c(cc1Br)OCO2	> 349	> 349	> 349	> 349	> 349 µM	> 349	> 349	–	> 349	–	–	–	–	–	–	–	–	–	–	–
Cc1cc(Cl)ccc1NC(=O)C(=O)Cc1occc(=O)c1O	> 100	> 100	> 100	> 100	> 100 µM	> 100	> 100	> 100	> 100	–	–	–	–	–	–	–	–	–	–	–
C=C1C(=O)O[C@H]2[C@H]1CC/C(CNC(=O)/C=C/c1ccc(Cl)cc1Cl)=C\CC[C@@]1(C)O[C@@H]21	5.46	2.16	1.81	2.51	1.54 µM	2.67	3.83	10.3	1.89	2.12	0.759	0.516 µM	1.09	0.329 µM	1.09 µM	1.62 µM	1.74 µM	0.232	–	–
Nc1ccc(C2=Nc3ccccc3SC(c3ccccc3O)C2)cc1 (configuration not stated)	> 100	> 100	> 100	64.9	49.7 µM	> 100	> 100	93.3	–	–	–	–	–	–	–	–	–	–	–	–
Cc1ccc(Nc2nc(C)c(C(/C=C/c3ccc4c(c3)OCO4)=N/Nc3ccc([N+](=O)[O-])cc3[N+](=O)[O-])s2)c([N+](=O)[O-])c1	> 100	> 100	> 100	37.4	–	> 100	> 100	> 100	> 100	–	–	–	–	–	–	–	–	–	–	–
COc1cc2c(cc1OCCCCCn1c3ccccc3c3ccccc31)N=C[C@@H]1CCCN1C2=O	3.02	4.58	4.88	–	–	3.74	6.55	2.58	> 100	1.57	1.93	2.01 µM	–	–	1.91 µM	2.15 µM	1.05 µM	15.4	2.33 µM	9.19
O=C1/C(=C\c2ccccc2)c2ccccc2N1/N=C\c1ccccc1	> 100	> 100	> 100	–	> 100 µM	> 100	> 100	> 100	–	–	–	–	–	–	–	–	–	–	–	–
CCOC(=O)C1Oc2ccc([N+](=O)[O-])cc2C1(C)O (configuration not stated)	> 100	–	> 100	> 100	> 100 µM	> 100	> 100	> 100	> 100	–	–	–	–	–	–	–	–	–	–	–
COc1ccc(/C(C#N)=C(/N)SCc2ccccc2Cl)cc1	> 100	–	29	27.4	> 100 µM	33.2	31.5	63.6	> 100	–	–	–	–	–	–	–	–	–	–	–
O=C(NN1C(=O)CSC12CCC(c1ccccc1)CC2)c1[nH]c2ccc(F)cc2c1-c1ccccc1 (configuration not stated)	30.8	36.6	30.8	28.2	31.8 µM	48.4	41.6	36.3	–	15.7	17.5	17.1 µM	14.3	13.8 µM	20 µM	22 µM	18 µM	–	25.3 µM	71.8
CNC(=O)c1cncc(/C=C/c2c(Cl)cccc2Cl)c1	> 25	> 25	> 25	> 25	> 25 µM	> 25	> 25	> 16.1	–	> 25	13.6	> 19.6 µM	8.38	> 25 µM	22.7 µM	> 12.8 µM	2.89 µM	–	> 25 µM	> 25
CCc1c2c(nc3ccc(OCc4ccc(B5OC(C)(C)C(C)(C)O5)cc4)cc13)-c1cc3c(c(=O)n1C2)COC(=O)[C@]3(O)CC	> 100	1.22	0.355	> 100	> 100 µM	> 100	–	0.296	> 100	0.06	0.0162	< 0.01 µM	0.0204	0.312 µM	< 0.01 µM	–	0.0183 µM	< 0.01	–	–
Clc1ccc(/C=C/c2nc(Cl)c(-c3ccc(Cl)cc3)c(Cl)n2)cc1	> 100	> 100	> 100	> 100	> 100 µM	> 100	> 100	64.5	–	–	–	–	–	–	–	–	–	–	–	> 100
O=c1[nH]c2c(c3ccccc13)CCc1ccccc1-2	> 100	> 100	–	> 100	> 100 µM	> 100	> 100	> 100	> 100	–	–	–	–	–	–	–	–	–	–	–
CC1(C)N=C(Oc2ccccc2)n2nccc2N1	> 100	> 100	> 100	> 100	> 100 µM	> 100	> 100	> 100	> 100	–	–	–	–	–	–	–	–	–	–	–
N#CC(C(=O)CCC(=O)Nc1ccc(Cl)c(Cl)c1)c1ccc(Cl)cc1 (configuration not stated)	> 100	> 100	> 100	–	> 100 µM	> 100	> 100	> 100	–	–	–	–	–	–	–	–	–	–	–	–
NS(=O)(=O)c1ccc(NC(=O)c2cccc3c(Nc4ccc(S(N)(=O)=O)cc4)c4ccccc4nc23)cc1	> 100	> 100	> 100	49.9	39.1 µM	65.3	> 100	> 100	–	–	–	–	–	–	–	–	–	–	–	–
COc1ccc(C=C2C(=O)NC(=O)NC2=O)cc1OCc1ccccc1	–	–	–	–	48.8 µg/mL	–	–	–	–	–	–	52.5 µg/mL	–	17.8 µg/mL	29.2 µg/mL	32.5 µg/mL	22.9 µg/mL	–	59.6 µg/mL	–

Compound	TGI (A549 NSCLC) [µM]	TGI (CAKI-1 renal) [µM]	TGI (LOX IMVI melanoma) [µM]	TGI (NCI-H522 lung) [µM]	TGI (RPMI-8226 leukemia)	TGI (SF-268 CNS) [µM]	TGI (SF-295 CNS) [µM]	TGI (SNB-75 CNS) [µM]	TGI (SR leukemia) [µM]	GI50 (A549 NSCLC) [µM]	GI50 (CAKI-1 renal) [µM]	GI50 (LOX IMVI melanoma)	GI50 (NCI-H522 lung) [µM]	GI50 (RPMI-8226 leukemia)	GI50 (SF-268 CNS)	GI50 (SF-295 CNS)	GI50 (SNB-75 CNS)	GI50 (SR leukemia) [µM]	GI50 (MCF7 breast)	TGI (MCF7 breast) [µM]
Nc1ccccc1C#C/C=C\C#Cc1ccccc1F	95.8	9.36	14.2	23.5	23.8 µM	23.3	16.6	–	–	10	2.89	4.07 µM	6.74	2.66 µM	4.23 µM	3.9 µM	–	–	3.2 µM	> 100
O=C1c2ccn(CCCCN(CCO)CCO)c2C(=O)c2c1c(O)c1ccccc1c2O	7.33	21.7	3.64	> 92.7	14.8 µM	> 63.2	42	65.5	–	2.32	8.24	1.04 µM	9.29	5.62 µM	13.7 µM	10.8 µM	21.4 µM	–	6.12 µM	> 58.1
O=S(=O)(N/N=C/c1ccc(Cl)cc1Cl)c1ccccc1	> 100	> 100	> 100	–	> 100 µM	> 100	> 100	> 100	> 100	–	–	–	–	–	–	–	–	–	–	–
NNC(=S)N/N=C(/C(=O)Nc1ccc([N+](=O)[O-])cc1)c1nc2ccc([N+](=O)[O-])cc2[nH]c1=O	> 100	> 100	> 100	> 100	> 100 µM	> 100	> 100	> 100	> 100	–	–	–	–	–	–	–	–	–	–	–
O=C1NN=CN2C(=O)CCC12 (configuration not stated)	> 100	> 100	> 100	–	> 100 µM	> 100	> 100	> 100	> 100	–	–	–	–	–	–	–	–	–	–	–
O=C(O)c1cc(=O)c2cc(C(=O)c3cccs3)c(Cl)c(Cl)c2o1	> 100	> 100	–	> 100	> 100 µM	> 100	> 100	> 100	> 100	–	–	–	–	–	–	–	–	–	–	–
COc1ccc(/C=N\O[Si](C)(C)C(C)(C)C)cc1O[Si](C)(C)C(C)(C)C	34.9	40.2	36.5	–	39 µM	39.4	30.9	37.1	–	–	–	–	–	–	–	–	–	–	–	–
COc1ccc(OC)c(/C=N/N=C2\C(=O)Nc3c(Cl)cc(Cl)cc32)c1	> 100	> 100	> 100	–	–	–	> 100	19.7	> 100	–	–	–	–	–	–	–	–	–	–	> 100
O=C(O)C1CC2CC(=O)C1C2 (configuration not stated)	> 100	> 100	> 100	> 100	> 100 µM	> 100	> 100	> 100	> 100	–	–	–	–	–	–	–	–	–	–	–
O=C1NC(SCc2ccc(F)cc2)=N/C1=C/c1cccc(OCc2ccc(Cl)cc2)c1	> 100	–	> 100	> 100	> 100 µM	> 100	> 100	> 100	76.2	6.61	–	6 µM	57.3	> 100 µM	> 100 µM	4.97 µM	10.1 µM	5.05	19.7 µM	> 100
O=C(CC(=O)c1ccccc1)C(=O)NC12CC3CC(CC(C3)C1)C2	> 100	> 100	> 50	> 100	> 66 µM	> 100	> 100	> 100	> 100	–	–	–	–	–	–	–	–	–	–	–
Cn1c2ccccc2c2[nH]c3ccccc3c(=O)c21	> 100	> 100	> 100	–	> 100 µM	> 100	> 100	> 100	> 100	–	–	–	–	–	–	–	–	–	–	> 100
O=C(CC(=O)C1CCOC1=O)C(=O)Nc1ccc(Cl)cc1 (configuration not stated)	> 100	> 100	> 100	> 100	> 100 µM	> 100	> 100	> 100	–	–	–	–	–	–	–	–	–	–	–	–
O=c1[nH]cnc2c1ncn2CCCCO	> 100	> 100	> 100	–	> 100 µM	> 100	> 100	> 100	> 100	–	–	–	–	–	–	–	–	–	–	–
Cc1cccc(N=C2NC(=O)C(CC(=O)Nc3ccccc3Cl)S2)c1 (configuration not stated)	> 100	> 100	> 100	–	> 100 µM	> 100	> 100	> 100	> 100	–	–	–	–	–	–	–	–	–	–	–
OC1c2ccccc2C2C(O)c3ccccc3C12 (configuration not stated)	> 100	> 100	> 100	> 100	> 100 µM	> 100	> 100	> 100	–	–	–	–	–	–	–	–	–	–	–	–
COc1cc(/C=C\c2ccc(Cl)cc2)cc(OC)c1OC	> 100	47.4	> 100	0.355	46.4 µM	> 100	0.218	–	16.7	–	–	–	–	–	–	–	–	–	–	–
O=C(Cn1c2ccccc2c2ccncc21)N/N=C\c1ccc2ccccc2c1	57.1	–	> 100	51.5	> 100 µM	91.6	34.6	61.6	> 100	20.9	–	28.6 µM	19.6	7.88 µM	18.7 µM	14.8 µM	22.2 µM	6.39	14.3 µM	> 100
COC1C(O)C(C)OC(O[C@@H]2C[C@H]3CC[C@@H]4[C@H](CC[C@]5(C)[C@@H](C6=CC(=O)OC6)CC[C@]45O)[C@@]3(C)[C@H](O)C2)C1O (some centres not stated)	< 0.0462	0.0215	0.233	0.132	0.0725 µM	0.171	0.321	1.01	–	–	–	–	–	–	–	–	–	–	–	–
O=C1NN=C(c2ccc([N+](=O)[O-])cc2)C1n1nc(-c2ccccc2)c2ccccc2c1=O (configuration not stated)	> 100	> 100	> 100	> 100	> 70 µM	> 100	> 100	> 100	> 100	–	–	–	–	–	–	–	–	–	–	–
CCCCCCCCCCCCCCCCCc1nnc(N)o1	> 100	> 100	> 100	> 100	> 100 µM	> 100	> 100	> 100	> 100	–	–	–	–	–	–	–	–	–	–	–
